Experimental data from ChEMBL document CHEMBL1144243, “Isolation, structure, and antibacterial activity of thiazomycin A, a potent thiazolyl peptide antibiotic from Amycolatopsis fastidiosa” (Bioorg Med Chem, 2008).
Values after ≈ are worked out from the molar mass of the structure shown. Active and inactive are the calls of the source. No cut-off for these calls is given here.

Assays:
Escherichia coli = experiment: Antibacterial activity against Escherichia coli MB2884 after 18 to 20 hrs by serial dilution method; assay type: functional
Candida albicans = experiment: Antimicrobial activity against Candida albicans MY1055 after 18 to 20 hrs by serial dilution method; assay type: functional
Haemophilus influenzae = experiment: Antibacterial activity against Haemophilus influenzae MSD2261 after 18 to 20 hrs by serial dilution method; assay type: functional
Staphylococcus aureus [1] = experiment: Inhibition of RNA synthesis in Staphylococcus aureus EP167 after 30 mins by scintillation counter; assay type: functional, organism-based
Enterococcus faecalis = experiment: Antibacterial activity against vancomycin-susceptible Enterococcus faecalis CL8516 after 18 to 20 hrs by serial dilution method; assay type: functional
Staphylococcus aureus [2] = experiment: Inhibition of DNA synthesis in Staphylococcus aureus EP167 after 30 mins by scintillation counter; assay type: functional, organism-based
Staphylococcus aureus [3] = experiment: Antibacterial activity against Staphylococcus aureus EP167 after 18 to 20 hrs by serial dilution method; assay type: functional
Staphylococcus aureus [4] = experiment: Antibacterial activity against methicillin-susceptible Staphylococcus aureus MB2865 after 18 to 20 hrs by serial dilution method; assay type: functional
Staphylococcus aureus [5] = experiment: Antibacterial activity against methicillin-resistant Staphylococcus aureus MB5393 containing COL plasmid after 18 to 20 hrs by serial dilution method; assay type: functional
Staphylococcus aureus [6] = experiment: Inhibition of protein synthesis in Staphylococcus aureus EP167 after 30 mins by scintillation counter; assay type: functional, organism-based; settings: 0.5 h
Streptococcus pneumoniae = experiment: Antibacterial activity against penicillin-susceptible Streptococcus pneumoniae CL2883 after 18 to 20 hrs by serial dilution method; assay type: functional
[7] = Aqueous solubility of the compound; assay type: physicochemical; settings: water
Staphylococcus aureus [8] = experiment: Inhibition of peptidoglycan synthesis in Staphylococcus aureus EP167 after 30 mins by scintillation counter; assay type: functional, organism-based
Staphylococcus aureus [9] = experiment: Inhibition of phospholipid synthesis in Staphylococcus aureus EP167 after 30 mins by scintillation counter; assay type: functional, organism-based

**Q.** Which MIC (Escherichia coli) does the source give for CC(=O)NC[C@H]1CN(c2ccc(N3CCOCC3)c(F)c2)C(=O)O1 [LINEZOLID] here?
**A.** > 32 µg/mL

**Q.** What about the MIC (Candida albicans) of the same compound?
**A.** > 32 µg/mL

**Q.** What about the MIC (Haemophilus influenzae) of the same compound?
**A.** > 32 µg/mL

**Q.** With C=C(NC(=O)c1csc(-c2nc3c(cc2O)-c2nc(cs2)C(=O)N[C@@H]([C@@H](C)O)C(=O)N/C(=C(\C)OC)c2nc(cs2)C(=O)N[C@@H]2c4nc(cs4)C(=O)N[C@@H](COC(=O)c4c5c6c(cccc6n4O)COC(=O)[C@@H](O[C@H]4C[C@]6(C)OC(C)N(C)[C@@H]6[C@H](C)O4)[C@H]2OC5)c2nc-3cs2)n1)C(N)=O (some centres undefined) [THIAZOMYCIN A] as the compound, how does the Activity (Staphylococcus aureus [1]) read?
**A.** inactive

**Q.** And the MIC (Enterococcus faecalis)?
**A.** 0.25 µg/mL (≈ 0.172 µM)

**Q.** What about the MIC (Escherichia coli) of the same compound?
**A.** > 32 µg/mL

**Q.** And the Activity (Staphylococcus aureus [2])?
**A.** inactive

**Q.** And the MIC (Staphylococcus aureus [3])?
**A.** 0.004 µg/mL (≈ 0.00276 µM)

**Q.** What about the MIC (Candida albicans) of the same compound?
**A.** > 32 µg/mL

**Q.** And the MIC (Staphylococcus aureus [4])?
**A.** 0.06 µg/mL (≈ 0.0414 µM)

**Q.** And the MIC (Staphylococcus aureus [5])?
**A.** 0.06 µg/mL (≈ 0.0414 µM)

**Q.** And the IC50 (Staphylococcus aureus [6])?
**A.** 0.7 µg/mL (≈ 0.483 µM)

**Q.** What about the MIC (Haemophilus influenzae) of the same compound?
**A.** > 32 µg/mL

**Q.** And the MIC (Streptococcus pneumoniae)?
**A.** 0.002 µg/mL (≈ 0.00138 µM)

**Q.** And the solubility [7]?
**A.** < 100 µg/mL

**Q.** And the Activity (Staphylococcus aureus [8])?
**A.** inactive

**Q.** And the Activity (Staphylococcus aureus [9])?
**A.** inactive

**Q.** With C=C(NC(=O)c1csc(-c2nc3c(cc2O)-c2nc(cs2)C(=O)N[C@@H]([C@@H](C)O)C(=O)N/C(=C(\C)OC)c2nc(cs2)C(=O)N[C@@H]2c4nc(cs4)C(=O)N[C@@H](COC(=O)c4c5c6c(cccc6n4O)COC(=O)[C@@H](O[C@H]4C[C@]6(C)OCN(C)[C@@H]6[C@H](C)O4)[C@H]2OC5)c2nc-3cs2)n1)C(N)=O [THIAZOMYCIN] as the compound, how does the MIC (Enterococcus faecalis) read?
**A.** 0.064 µg/mL (≈ 0.0446 µM)

**Q.** And the MIC (Escherichia coli)?
**A.** > 32 µg/mL

**Q.** What about the MIC (Candida albicans) of the same compound?
**A.** > 32 µg/mL

**Q.** And the MIC (Staphylococcus aureus [4])?
**A.** 0.016 µg/mL (≈ 0.0111 µM)

**Q.** And the MIC (Staphylococcus aureus [5])?
**A.** 0.032 µg/mL (≈ 0.0223 µM)

**Q.** And the MIC (Haemophilus influenzae)?
**A.** > 32 µg/mL

**Q.** And the MIC (Streptococcus pneumoniae)?
**A.** 0.004 µg/mL (≈ 0.00279 µM)
